Where two headings read alike, the source gives them in different places. Where only a bound is given, the exact number is not on record here.

In the assay the test system is Human peripheral blood mononuclear cells (PBMC). The assay can be described thus: Cytokine induction in human cells (PBMC), cytokines by ELISA / multiplex bead assay. The class given is cell-based. The conditions noted are these: for minimal effective concentration: human PBMC, 21-24 hours, lowest concentration giving cytokine level at least 2x negative control; for cytokine production (statement in words): IFN-alpha, IFN-gamma, TNF-alpha. Here is the method: Whole blood was obtained from healthy human donors and collected by venipuncture into vacutainer tubes or syringes containing EDTA. Human peripheral blood mononuclear cells (PBMC) were purified from the whole blood by density gradient centrifugation. Histopaque 1077 (15 mL, Sigma, St. Louis, Mo.) was transferred to 6×50 mL sterile polypropylene conical tubes. The Histopaque was overlayed with 15-25 mL of blood diluted 1:2 in Hank's Balanced Salts Solution (HBSS) (Gibco, Life Technologies, Grand Island, N.Y.). The tubes were then centrifuged at 1370 revolutions per minute (rpm) for 30 minutes at 20° C., with no brake (400×g, GH 3.8 A Rotor).
The interface (buffy coat) containing the PBMC was collected and placed in a new sterile 50 mL conical polypropylene centrifuge tube. The PBMC were mixed with an equal volume of HBSS (about 20 mL from the interface and about 20 mL of HBSS), and then centrifuged at 1090 rpm, 10 minutes, 20° C., with brake (270×g, GH 3.8 A Rotor). After completing centrifugation, the cells were resuspended in 2-3 mL ACK Red blood cell lysis buffer (ammonium chloride potassium solution, Gibco, Life Technologies) and incubated for 2-5 minutes at 20° C. Next, HBSS (40 mL) was added to the cells, and the sample was centrifuged at 270×g for 10 minutes at 20° C. The supernatant was decanted, and the cell pellet was resuspended in 5 mL AIM V Medium (Gibco, Life Technologies). Cell aggregates and debris were removed by filtering the cell solution through a BD Falcon 70 micron nylon cell strainer (BD Biosciences, San Jose, Calif.).
The number of viable cells was determined by counting with a Miltenyi FACS instrument (Miltenyi Biotec Inc., San Diego, Calif.) or by using a hemacytometer. For determining cell viability with a hemacytometer, the cells were diluted 1/10 in 0.4% trypan blue and HBSS (specifically, 50 microliter of trypan blue+40 microliter of HBSS+10 microliter of cell solution were added to a microfuge tube and mixed). Ten microliters of the diluted cells were then applied to the hemacytometer, and the number of viable PBMC were determined by microscopy.
The PBMC sample was then resuspended in 96-well plates at a concentration of 8×10^5 cells/well in 0.1 mL of AIM-V medium. Each compound was solubilized in dimethyl sulfoxide (DMSO) to create a 3 mM stock solution. The stock solution was then further diluted with AIM-V medium to prepare the serial dilutions. The diluted compound (100 microliters) was then transferred to the PBMCs to produce testing sets with final compound concentrations of either 30, 10, 3.3, 1.1, 0.37, 0.12, 0.04, 0.01 micromolar (testing set A); 100, 30, 10, 3.3, 1.1, 0.37, 0.12, 0.04, 0.01, 0.005 micromolar (testing set B); 100, 33.3, 11.1, 3.7, 1.2, 0.41 micromolar (testing set C); or 100, 50, 30, 10, 3.3, 1.1, 0.37, 0.12, 0.04 micromolar (testing set D). The plates also had both positive and negative controls. The negative control wells contained only AIM-V medium with no example compound. The positive control wells contained a control set of imiquimod serially diluted to concentrations of either 30, 10, 3.3, 1.1, 0.37, 0.12, 0.04, 0.01 micromolar (control set A); 100, 30, 10, 3.3, 1.1, 0.37, 0.12, 0.04, 0.01, 0.005 micromolar (control set B); 100, 33.3, 11.1, 3.7, 1.2, 0.41 micromolar (control set C); or 100, 50, 30, 10, 3.3, 1.1, 0.37, 0.12, 0.04 micromolar (control set D). The concentrations used in the control set were selected to match the concentrations used in the testing set. The plates were then cultured at 37° C./5% CO2 for 21-24 hours. Cell-free supernatants were harvested by centrifuging the 96-well plates at 2100 rpm, 23° C. for 10 minutes. Approximately 160 microliters of the supernatant was then stored in a NUNC 96-well plate, covered with the compression cap and stored at −80° C. until the cytokine analysis was done.
IFN-alpha cytokine levels (picograms/mL) were measured by ELISA (human IFN-alpha, pan specific, Mabtech, Cincinnati, Ohio). […]
On the technique in general: ELISA stands for enzyme-linked immunosorbent assay.

Setting [1] is: ELISA, read-out: MEC to Induce Cytokine: IFN-alpha.
Where [2] appears, read: multiplex bead assay, read-out: MEC to Induce Cytokine: IFN-gamma.
Where [3] appears, read: multiplex bead assay, read-out: MEC to Induce Cytokine: TNF-alpha.

In the case of `CCC[C@@H](n1cnc2c(N)nc3ccccc3c21)C(C)(C)O` [Example 13, (3R)-3-(4-aminoimidazo[4,5-c]quinolin-1-yl)-2-methyl-hexan-2-ol], the minimal effective concentration by setting is: under setting [1], not above 0.41 µM; under setting [2], not above 0.41 µM; under setting [3], not above 0.41 µM.

As for `CCC(O)(CC)[C@@H](C)n1cnc2c(N)nc3ccccc3c21` [Example 19, (2R)-2-(4-aminoimidazo[4,5-c]quinolin-1-yl)-3-ethyl-pentan-3-ol], the minimal effective concentration runs as follows: under setting [1], 1.1 µM; under setting [2], 3.3 µM; under setting [3], 1.1 µM.

For the molecule `CC(C)(O)Cn1cnc2c(N)nc3ccccc3c21` [Comparative Example 2, 1-(4-aminoimidazo[4,5-c]quinolin-1-yl)-2-methyl-propan-2-ol, reference compound], the minimal effective concentration is, setting by setting: under setting [1], 10 µM; under setting [2], 10 µM; under setting [3], 10 µM.

Consider `C[C@@H](n1cnc2c(N)nc3ccccc3c21)C(C)(C)C` [Example 3, 1-[(1R)-1,2,2-trimethylpropyl]imidazo[4,5-c]quinolin-4-amine], for which the minimal effective concentration runs as follows: under setting [1], 1.2 µM; under setting [2], 1.2 µM; under setting [3], 1.2 µM.

In the case of `CC(C)C[C@H](n1cnc2c(N)nc3ccccc3c21)C(C)(C)O` [Example 18, (3S)-3-(4-aminoimidazo[4,5-c]quinolin-1-yl)-2,5-dimethyl-hexan-2-ol], the “cytokine production (statement in words)” value is “inactive toward cytokine production”. Under setting [1], the minimal effective concentration was more than 100 µM. Besides, under setting [2], the minimal effective concentration was more than 100 µM. Moreover, the minimal effective concentration under setting [3] was more than 100 µM.

Consider `CCCC[C@@H](n1cnc2c(N)nc3ccccc3c21)C(C)(C)C` [Example 8, 1-[(1R)-1-tert-butylpentyl]imidazo[4,5-c]quinolin-4-amine], for which the minimal effective concentration was 0.04 µM under setting [1], more than 30 µM under setting [2] and 0.04 µM under setting [3].

`C[C@@H](n1cnc2c(N)nc3ccccc3c21)C(C)(C)O` [Example 9, (3R)-3-(4-aminoimidazo[4,5-c]quinolin-1-yl)-2-methyl-butan-2-ol]: the minimal effective concentration reads like this: under setting [1], 3.3 µM; under setting [2], 3.3 µM; under setting [3], 10 µM.

For `CCCC[C@H](C(C)C)n1cnc2c(N)nc3ccccc3c21` [Example 7, 1-[(1R)-1-isopropylpentyl]imidazo[4,5-c]quinolin-4-amine], the minimal effective concentration is 0.12 µM under setting [1], more than 30 µM under setting [2] and 0.12 µM under setting [3].

Turning to `CC(C)[C@@H](C)n1cnc2c(N)nc3ccccc3c21` [Example 1, 1-[(1R)-1,2-dimethylpropyl]imidazo[4,5-c]quinolin-4-amine], the minimal effective concentration reads like this: under setting [1], 3.7 µM; under setting [2], 3.7 µM; under setting [3], 1.2 µM.

`C[C@@H](C1CCCCC1)n1cnc2c(N)nc3ccccc3c21` [Example 6, 1-[(1S)-1-cyclohexylethyl]imidazo[4,5-c]quinolin-4-amine]: the “cytokine production (statement in words)” value was “inactive toward cytokine production”. In addition, the minimal effective concentration under setting [1] was more than 100 µM. Also, under setting [2], the minimal effective concentration is more than 100 µM. In addition, the minimal effective concentration under setting [3] is more than 100 µM.

For `CC[C@@H](n1cnc2c(N)nc3ccccc3c21)C(C)(C)O` [Example 11, (3R)-3-(4-aminoimidazo[4,5-c]quinolin-1-yl)-2-methyl-pentan-2-ol], the minimal effective concentration is, setting by setting: under setting [1], 1.1 µM; under setting [2], 3.3 µM; under setting [3], 1.1 µM.

For `CCCC[C@@H](n1cnc2c(N)nc3ccccc3c21)C(C)(C)O` [Example 15, (3R)-3-(4-aminoimidazo[4,5-c]quinolin-1-yl)-2-methyl-heptan-2-ol], the minimal effective concentration by setting is: under setting [1], not above 0.04 µM; under setting [2], 0.12 µM; under setting [3], 0.12 µM.

As for `CCCC[C@H](n1cnc2c(N)nc3ccccc3c21)C(C)(C)O` [Example 16, (3S)-3-(4-aminoimidazo[4,5-c]quinolin-1-yl)-2-methyl-heptan-2-ol], the “cytokine production (statement in words)” value is “inactive toward cytokine production”. Besides, the minimal effective concentration under setting [1] is more than 100 µM. Under setting [2], the minimal effective concentration was more than 100 µM. For the same molecule, under setting [3], the minimal effective concentration was more than 100 µM.

As for `CC(C)[C@H](C)n1cnc2c(N)nc3ccccc3c21` [Example 2, 1-[(1S)-1,2-dimethylpropyl]imidazo[4,5-c]quinolin-4-amine], the “cytokine production (statement in words)” value was “inactive toward cytokine production”. Moreover, under setting [1], the minimal effective concentration is more than 100 µM. Further, the minimal effective concentration under setting [2] was more than 100 µM. For the same molecule, under setting [3], the minimal effective concentration is more than 100 µM.

Regarding `C[C@H](n1cnc2c(N)nc3ccccc3c21)C(C)(C)F` [Example 21, 1-[(1S)-2-fluoro-1,2-dimethyl-propyl]imidazo[4,5-c]quinolin-4-amine], the “cytokine production (statement in words)” value is “inactive toward cytokine production”. Further, the minimal effective concentration under setting [1] was more than 100 µM. For the same molecule, under setting [2], the minimal effective concentration is more than 100 µM. Besides, the minimal effective concentration under setting [3] was more than 100 µM.

For the molecule `C[C@H](n1cnc2c(N)nc3ccccc3c21)C(C)(C)O` [Example 10, (3S)-3-(4-aminoimidazo[4,5-c]quinolin-1-yl)-2-methyl-butan-2-ol], the “cytokine production (statement in words)” value was “inactive toward cytokine production”. Moreover, under setting [1], the minimal effective concentration is more than 30 µM. The minimal effective concentration under setting [2] is more than 30 µM. The minimal effective concentration under setting [3] is more than 30 µM.

For `C[C@@H](n1cnc2c(N)nc3ccccc3c21)C(C)(C)F` [Example 20, 1-[(1R)-2-fluoro-1,2-dimethyl-propyl]imidazo[4,5-c]quinolin-4-amine], the minimal effective concentration is, setting by setting: under setting [1], 10 µM; under setting [2], 30 µM; under setting [3], 10 µM.

With `CC[C@H](n1cnc2c(N)nc3ccccc3c21)C(C)(C)O` [Example 12, (3S)-3-(4-aminoimidazo[4,5-c]quinolin-1-yl)-2-methyl-pentan-2-ol], the “cytokine production (statement in words)” value was “inactive toward cytokine production”. Also, the minimal effective concentration under setting [1] was more than 100 µM. Also, the minimal effective concentration under setting [2] was more than 100 µM. In addition, under setting [3], the minimal effective concentration was more than 100 µM.

Regarding `CCC[C@H](n1cnc2c(N)nc3ccccc3c21)C(C)(C)O` [Example 14, (3S)-3-(4-aminoimidazo[4,5-c]quinolin-1-yl)-2-methyl-hexan-2-ol], the “cytokine production (statement in words)” value is “inactive toward cytokine production”. Also, the minimal effective concentration under setting [1] was more than 30 µM. Under setting [2], the minimal effective concentration is more than 30 µM. Under setting [3], the minimal effective concentration is more than 30 µM.

`C[C@H](C1CCCCC1)n1cnc2c(N)nc3ccccc3c21` [Example 5, 1-[(1R)-1-cyclohexylethyl]imidazo[4,5-c]quinolin-4-amine]: the minimal effective concentration came out at 0.41 µM under setting [1], 1.2 µM under setting [2] and 0.41 µM under setting [3].

The values above are taken from patent publication US20220177471A1, “N-1 BRANCHED ALKYL SUBSTITUTED IMIDAZO[4,5-C]QUINOLINE COMPOUNDS, COMPOSITIONS, AND METHODS” (3M INNOVATIVE PROPERTIES COMPANY, priority 2019, published 2022).
